From patent US20200390902A1, “Antibody-Drug Conjugates Targeted at Human Aspartyl-(Asparaginyl)-B-Hydroxylase (HAAH)” (Panacea Pharmaceuticals, Inc., priority 2017, published 2020)

How the values were obtained:
MIA-PaCa-2 ASPH cells = assay: MTS cytotoxicity assay, MIA-PaCa-2 ASPH; type: cell-based, human; details: 10-50 nM, 48 hours
Description: The in vitro specificity of SNS622-MC-DM1 was also examined using the human pancreas cell line MIA-PaCa-2 ASPH. This cell line has a high level expression of ASPH. MIA-PaCa-2 cells were seeded at a density of 2,000 cells/well and cultured in high-glucose (25 mM D-glucose) Dulbecco's Modified Eagle's Medium (DMEM) with 10% FBS at 37° C. in a humidified atmosphere containing 5% CO2. The cells were treated with 10 nM IgG1-MC-DM1, 20 nM IgG1-MC-DM1, 50 nM IgG1-MC-DM1, 10 nM SNS622-MC-DM1, 20 nM SNS622-MC-DM1, or 50 nM SNS622-MC-DM1 for 48 hours. IgG1-MC-DM1 is a control ADC obtained from Goodwin Biotechnology, having catalog No. DAGIC1194, The cytotoxicity of the ADCs was measured using an MTS assay kit (Promega, Catalog No, G3582). After treatment for 1 hour with the MTS solution, absorbance was measured using a microplate reader at a 490 nm wavelength, with a reference at 690 nm.

H460 cells = assay: Lactate dehydrogenase (LDH) release assay, H460
Description: FIG. 6 depicts the effects of linker and payload on cytotoxicity to cancer cell H460. […] The Log of the antibody concentration in nM is shown on the X axis.
HAAH is highly expressed on the surface of cancer cells, but not on normal adult human cells. The specificity of SNS622-MC-DM1 was examined using human lung carcinoma cell line H460 and LONZA NHLF, a normal human lung fibroblasts (NHLF) cell line. Both cell lines were cultured in HG-DMEM (ThermoFisher Scientific Catalog No. 11965-092) supplemented with 20 mM HEPES (4-(2-hydroxyethyl)-1-piperazineethanesulfonic acid), 4 mM L-glutamine, 1 mM sodium pyruvate, 1× non-essential amino acids, 50 μg/ml gentamicin and 10% fetal bovine serum (FBS). H460 and NHLF cells were seeded into 96-well plates at 5,000 cells per well, following a 2-day FBS deprivation, and released by culture in complete culture medium containing 10% FBS. […] By 72 hours post treatment, cell death was determined by observing cell morphology using a phase contrast microscope at 150×.
The cell death was also quantified using lactate dehydrogenase (LDH) releasing assay. For the LDH assay, a mixture of a 35 μl aliquot of culture medium and 17.5 μl of substrate, enzyme, and dye solutions (Sigma, St. Louis, Mo., U.S.A.) was incubated at room temperature for 30 minutes, and absorbance was measured at 490 nm using a plate reader (ELx805; BioTek, Winooski, Vt., U.S.A.).

SNS622-MC-DM1: SNS622 anti-HAAH monoclonal antibody conjugated to mertansine (DM1) by the non-cleavable linker maleimidocaproyl (MC)
Reduction of relative absorbance (MTS) (MIA-PaCa-2 ASPH cells): about 16% | Increase in release of LDH compared to untreated cells (H460 cells; H460, 32 nM, 72 hours): 39 × | CC50 (H460 cells; read-out: LC50 of LDH, H460, 72 hours, reaction DAR 10:1): 36 nM
